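Values below derive from 48-hour exposures of cells grown in 96-well plates, with endpoints linearly interpolated between the two concentrations bracketing the appropriate inhibition level. At the GI50, growth is halved.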 Active and inactive are the calls of the source. No stated cut-off is given here; in the data, active = GI50 up to about 1.1 µM and inactive = higher.
Experiments:
Experiment in all cases: NCI tumour cell line growth inhibition, 48 h
NCI-H226 = system: NCI-H226
HCT-116 = system: HCT-116
UO-31 = system: UO-31
CAKI-1 = system: CAKI-1
UACC-62 = system: UACC-62
LXFL 529 = system: LXFL 529
HT-29 = system: HT-29
HCT-15 = system: HCT-15
SF-295 = system: SF-295
HL-60 = system: HL-60
NCI-H460 = system: NCI-H460
M19-MEL = system: M19-MEL
SF-539 = system: SF-539
NCI-H23 = system: NCI-H23
786-0 = system: 786-0
SN12C = system: SN12C
CCRF-CEM = system: CCRF-CEM
MCF7 = system: MCF7
DU-145 = system: DU-145
MDA-MB-231 = system: MDA-MB-231

Row | Structure (SMILES) | GI50 (NCI-H226) | GI50 (HCT-116) | GI50 (UO-31) | GI50 (CAKI-1) | GI50 (UACC-62) | GI50 (LXFL 529) | GI50 (HT-29) | GI50 (HCT-15) | GI50 (SF-295) | GI50 (HL-60) | GI50 (NCI-H460) | GI50 (M19-MEL) | GI50 (SF-539) | GI50 (NCI-H23) | GI50 (786-0) | GI50 (SN12C) | GI50 (CCRF-CEM) | GI50 (MCF7) | GI50 (DU-145) | GI50 (MDA-MB-231)
1 | [O-][Cl+3]([O-])([O-])[O-].c1ccc(-c2[o+]c(-c3ccccc3)c(-c3ccccc3)c(-c3ccccc3)c2-c2ccccc2)cc1 | > 100 µM (inactive) | > 100 µM (inactive) | > 100 µM (inactive) | > 100 µM (inactive) | > 100 µM (inactive) | > 100 µM (inactive) | > 100 µM (inactive) | > 100 µM | > 100 µM (inactive) | > 100 µM (inactive) | > 100 µM (inactive) | > 100 µM (inactive) | > 100 µM (inactive) | > 100 µM (inactive) | > 100 µM (inactive) | > 100 µM (inactive) |  |  |  | 
2 | COc1cc(Nc2nc3ccccc3nc2-c2cccs2)cc(OC)c1OC | 66.7 µM (inactive) | 28.1 µM (inactive) | > 10 µM (inactive) |  | 36.2 µM (inactive) | 17.3 µM (inactive) | 41.7 µM (inactive) | 19 µM | 22.8 µM (inactive) | 15.2 µM (inactive) | 33.7 µM (inactive) | 40.5 µM (inactive) | 40.6 µM (inactive) | 50.6 µM (inactive) | 22.4 µM (inactive) | 30.9 µM (inactive) | 47.1 µM (inactive) |  |  | 
3 | CC1=Nc2ccccc2SC(c2c(Cl)cccc2Cl)C1 (configuration not stated) | 1.51 µM (inactive) | 0.225 µM (active) | 1.71 µM (inactive) | 2.1 µM (inactive) | 1.25 µM (inactive) | 0.5 µM (active) | 0.397 µM (active) | 1.19 µM | 1.34 µM (inactive) | 0.341 µM (active) | 1.14 µM (inactive) | 1.16 µM (inactive) | 0.993 µM (active) | 1.32 µM (inactive) | 0.454 µM (active) | 1.33 µM (inactive) | 0.304 µM (active) |  |  | 
4 | Cc1cc(O)nc(NNC(C#N)c2ccco2)n1 (configuration not stated) | > 100 µM (inactive) | > 100 µM (inactive) | > 100 µM (inactive) | > 100 µM (inactive) | > 100 µM (inactive) | > 100 µM (inactive) | > 100 µM (inactive) | > 100 µM | > 100 µM (inactive) | > 100 µM (inactive) | > 100 µM (inactive) | > 100 µM (inactive) | > 100 µM (inactive) | > 100 µM (inactive) | > 100 µM (inactive) | > 100 µM (inactive) | > 100 µM (inactive) |  |  | 
5 | N#CCCN(c1ccc(/C=N/c2ccc(C(=O)O)cc2)cc1)S(=O)(=O)c1ccccc1 | > 100 µM (inactive) | > 100 µM (inactive) | > 100 µM (inactive) | > 100 µM (inactive) | > 100 µM (inactive) | > 100 µM (inactive) | > 100 µM (inactive) | > 100 µM | > 100 µM (inactive) | 41.4 µM (inactive) | > 100 µM (inactive) | > 100 µM (inactive) | > 100 µM (inactive) | > 100 µM (inactive) | > 100 µM (inactive) | > 100 µM (inactive) | > 100 µM (inactive) |  |  | 
6 | COc1ccccc1-n1c(C)nc2ccccc2c1=O | > 100 µM (inactive) | > 100 µM (inactive) | > 100 µM (inactive) | > 100 µM (inactive) | > 100 µM (inactive) | > 100 µM (inactive) | > 100 µM (inactive) | > 100 µM | > 100 µM (inactive) | > 100 µM (inactive) | > 100 µM (inactive) | > 100 µM (inactive) | > 100 µM (inactive) | > 100 µM (inactive) | > 100 µM (inactive) | > 100 µM (inactive) | > 100 µM (inactive) |  |  | 
7 | Cc1cc(O)nc(NNC(C#N)c2cccc([N+](=O)[O-])c2)n1 (configuration not stated) | > 100 µM (inactive) | > 100 µM (inactive) | 73.1 µM (inactive) | > 100 µM (inactive) | > 100 µM (inactive) | > 100 µM (inactive) | > 100 µM (inactive) | > 100 µM | > 100 µM (inactive) | > 100 µM (inactive) | > 100 µM (inactive) | > 100 µM (inactive) | > 100 µM (inactive) | > 100 µM (inactive) | > 100 µM (inactive) | > 100 µM (inactive) | > 100 µM (inactive) |  |  | 
8 | CN(C)C(=S)/N=c1\ssc(=S)n1Cc1ccccc1 | 2.61 µM (inactive) | 0.344 µM (active) | 0.667 µM (active) | 0.676 µM (active) | 0.312 µM (active) | 0.459 µM (active) | 0.308 µM (active) | 0.237 µM | 0.229 µM (active) | 0.338 µM (active) | 0.34 µM (active) | 0.318 µM (active) | 0.309 µM (active) | 0.465 µM (active) | 0.361 µM (active) | 0.867 µM (active) | 0.411 µM (active) | 0.82 µM (active) | 1.79 µM (inactive) | 0.631 µM (active)

From ChEMBL document CHEMBL1201862, “PubChem BioAssay data set” (2004)
